# Earlier results in patent publication US20080146664A1, “Method for treating diseases caused by accumulation of body fat” (priority 2006, published 2008).
# Settings: addition of conjugated linoleic acid
substance,measurement,value
conjugated linoleic acid,"lipodystrophy-like symptoms (fatty liver, splenic hypertrophy, disappearance of brown fat)",generated
same,pattern of adipose tissue decrease,partial decrease in adipose tissue
same,significant decrease in the parametrial adipose tissue,not observed
same,significant decrease in the weight of the liver,not observed
